From patent US20080261994A1, “CYCLOPROPANE COMPOUNDS AND PHARMACEUTICAL USE THEREOF” (Japan Tobacco Inc., priority 2003, published 2008)
Like-named read-outs stand apart in the source and are kept apart here.

Assays:
Assay type in all cases: biochemical
aggrecanase-1 = target: T1, aggrecanase-1 (Homo sapiens, UniProt O75173); experiment: Aggrecanase-1 inhibitory action (Particle Assay, GAG release from aggrecan-containing polyacrylamide particles)
T1 sequence (O75173 213-837): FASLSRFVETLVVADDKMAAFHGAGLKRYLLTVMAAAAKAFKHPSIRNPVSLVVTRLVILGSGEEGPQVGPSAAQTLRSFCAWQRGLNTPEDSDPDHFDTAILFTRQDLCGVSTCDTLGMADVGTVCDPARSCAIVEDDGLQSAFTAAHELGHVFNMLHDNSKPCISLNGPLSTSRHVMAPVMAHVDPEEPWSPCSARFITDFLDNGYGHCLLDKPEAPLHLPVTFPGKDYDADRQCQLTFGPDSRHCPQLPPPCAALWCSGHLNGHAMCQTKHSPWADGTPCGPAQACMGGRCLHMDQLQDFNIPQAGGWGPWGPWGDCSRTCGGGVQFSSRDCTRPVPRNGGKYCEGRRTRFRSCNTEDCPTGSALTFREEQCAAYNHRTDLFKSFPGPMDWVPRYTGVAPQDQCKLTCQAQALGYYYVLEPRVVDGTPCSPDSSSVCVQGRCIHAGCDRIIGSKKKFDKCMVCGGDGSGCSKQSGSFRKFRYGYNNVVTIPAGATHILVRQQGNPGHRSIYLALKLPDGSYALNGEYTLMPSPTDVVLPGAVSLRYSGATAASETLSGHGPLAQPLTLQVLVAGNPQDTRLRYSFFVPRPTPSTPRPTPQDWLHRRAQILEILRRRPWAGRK
In short: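 Readout was dimethylmethylene blue absorbance (595 nm) of glycosaminoglycan liberated into supernatant, calibrated with whale chondroitin sulfate. Substrate was aggrecan in polyacrylamide particles, digested 15 h at 37° C in Tris-HCl; TC50 (μM) derived from inhibition relative to no-enzyme and no-inhibitor controls.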

MMP-1 = target: T2, MMP-1 (Homo sapiens, UniProt P03956); experiment: MMP-1 inhibitory action (Type I collagen Activity Measurement kit, FITC-labeled collagen type I)
T2 sequence (P03956 100-469): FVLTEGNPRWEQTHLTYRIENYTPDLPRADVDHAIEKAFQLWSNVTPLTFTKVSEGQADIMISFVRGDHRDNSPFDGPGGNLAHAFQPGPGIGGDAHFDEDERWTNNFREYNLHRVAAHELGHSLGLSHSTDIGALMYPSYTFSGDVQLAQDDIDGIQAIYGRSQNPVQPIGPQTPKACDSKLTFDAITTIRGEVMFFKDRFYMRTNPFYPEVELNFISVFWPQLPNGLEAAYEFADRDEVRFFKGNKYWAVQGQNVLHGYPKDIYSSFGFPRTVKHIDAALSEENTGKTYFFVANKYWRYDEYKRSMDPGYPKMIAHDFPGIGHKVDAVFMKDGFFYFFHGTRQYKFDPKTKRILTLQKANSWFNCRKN

Recombinant Human MMP-13 = target: T3, Recombinant Human MMP-13 (Homo sapiens, UniProt P45452); experiment: MMP-13 inhibitory activity (MMP-13 specific fluorescent substrate with quencher)
T3 construct: purchased R&D systems 511-MM
In short: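 IC50 (μM) derived from % inhibition, normalised to wells without enzyme and without inhibitor, fluorescence read at 325/405 nm. Enzyme and compound preceded addition of the quenched 7-MCA…DPA substrate; Tris-HCl buffer, 25 °C for 1 h, acetic-acid stop.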

[1] = Experimental Example 1, read-out: IC50 AG1
[2] = Experimental Example 2, read-out: IC50 MMP1
[3] = Experimental Example 3, read-out: IC50 MMP13
[4] = aggrecanase-1 inhibitory action, read-out: IC50 AG1 (Experimental Example 1)
[5] = MMP-1 inhibitory action, FITC-labeled collagen type I, 37° C. for 3 hr, read-out: IC50 MMP1 (Experimental Example 2)
[6] = Recombinant Human MMP-13, fluorescent substrate, 25° C. for 1 h, read-out: IC50 MMP13 (Experimental Example 3)

Row | IC50 (aggrecanase-1; [1]) [nM] | IC50 (MMP-1; [2]) [nM] | IC50 (Recombinant Human MMP-13; [3]) [nM] | IC50 (aggrecanase-1; [4]) [nM] | IC50 (MMP-1; [5]) [nM] | IC50 (Recombinant Human MMP-13; [6]) [nM] | SMILES
1 | ≥ 1000 | ≥ 1000 | ≥ 1000 | – | – | – | CC1[C@H](c2ccccc2)[C@]1(NS(=O)(=O)N1Cc2ccc(O)cc2C1)C(=O)O (stereo partly drawn) [Example 2-548]
2 | < 1000 | ≥ 1000 | ≥ 1000 | – | – | – | CC1(c2cccnc2)CC1(NS(=O)(=O)c1ccc(-c2cc(C(F)(F)F)on2)s1)C(=O)O (stereo not drawn) [Example 2-617]
3 | < 1000 | ≥ 1000 | < 1000 | – | – | – | C[C@]1(c2ccccc2)C[C@@]1(NS(=O)(=O)c1ccc(-c2ccc(C#N)c(F)c2)s1)C(=O)O [Example 2-593]
4 | < 1000 | ≥ 1000 | < 100 | – | – | – | O=C(O)C1(NS(=O)(=O)c2ccc(-c3ccc(Cl)cc3)s2)CC1(CNCc1nccs1)c1ccccc1 (stereo not drawn) [Example 2-393]
5 | < 1000 | ≥ 1000 | < 1000 | – | – | – | C[C@]1(c2ccccc2)C[C@@]1(NS(=O)(=O)c1ccc(-c2ccc(O)cc2)s1)C(=O)O [Example 2-582]
6 | < 100 | ≥ 1000 | < 100 | – | – | – | CC1[C@H](c2ccccc2)[C@]1(NS(=O)(=O)c1ccc(-c2ccc(C(F)(F)F)cc2)s1)C(=O)O (stereo partly drawn) [Example 2-590]
7 | ≥ 1000 | < 1000 | < 100 | – | – | – | C[C@]1(c2ccccc2)C[C@@]1(NS(=O)(=O)c1ccc(-n2cc(C(F)(F)F)cn2)cc1)C(=O)O [Example 2-506]
8 | < 100 | < 1000 | < 100 | – | – | – | O=C(O)C1(NS(=O)(=O)c2ccc(-c3ccc(Cl)cc3)s2)C2CCC(O)c3ccccc3C21 (stereo not drawn) [Example 2-411]
9 | < 1000 | ≥ 1000 | ≥ 10000 | – | – | – | CC1[C@H](c2ccccc2)[C@]1(NS(=O)(=O)N1CCCN(c2ccc(F)cc2)CC1)C(=O)O (stereo partly drawn) [Example 2-472]
10 | < 1000 | ≥ 1000 | < 1000 | – | – | – | C[C@]1(c2ccccc2)C[C@@]1(NS(=O)(=O)c1ccc(-c2ncc(Br)cn2)s1)C(=O)O [Example 2-414]
11 | ≥ 1000 | ≥ 1000 | ≥ 1000 | – | – | – | CC1[C@H](c2ccccc2)[C@]1(NS(=O)(=O)N1CCC(OCc2ccc(Cl)cc2Cl)C1)C(=O)O (stereo partly drawn) [Example 2-553]
12 | < 100 | ≥ 1000 | < 100 | – | – | – | C[C@]1(c2ccccc2)C[C@@]1(NS(=O)(=O)c1ccc(-c2ccc(C(F)(F)F)cc2)s1)C(=O)O [Example 2-572]
13 | ≥ 1000 | ≥ 1000 | ≥ 1000 | – | – | – | CC1[C@H](c2ccccc2)[C@]1(NS(=O)(=O)N1CCC(OCc2ccc(Cl)cc2)C1)C(=O)O (stereo partly drawn) [Example 2-550]
14 | < 1000 | < 1000 | < 100 | – | – | – | COCc1cc(-c2ccc(S(=O)(=O)N[C@@]3(C(=O)O)C[C@]3(C)c3ccccc3)s2)no1 [Example 2-403]
15 | < 100 | < 100 | < 100 | – | – | – | CC1C(c2ccccc2)C1(NS(=O)(=O)c1ccc(-c2cccc(CO)c2)s1)C(=O)O (stereo not drawn) [Example 2-525]

Further lines, the molecule ahead of its results:

Row | SMILES | IC50 (aggrecanase-1; [1]) [nM] | IC50 (MMP-1; [2]) [nM] | IC50 (Recombinant Human MMP-13; [3]) [nM] | IC50 (aggrecanase-1; [4]) [nM] | IC50 (MMP-1; [5]) [nM] | IC50 (Recombinant Human MMP-13; [6]) [nM]
16 | O=C(NO)C1(NS(=O)(=O)c2ccc(OCc3ccc(Cl)cc3Cl)cc2)C2CCCc3ccccc3C21 (stereo not drawn) [Example 2-390] | < 1000 | ≥ 10000 | ≥ 1000 | – | – | –
17 | O=C(O)[C@]1(NS(=O)(=O)/C=C/c2cccc(C(F)(F)F)c2)C[C@@H]1c1ccccc1 [Example 2-162] | – | – | – | ≥ 10000 | ≥ 10000 | ≥ 10000
18 | O=C(O)[C@]1(NS(=O)(=O)c2ccc(-c3cc(CF)on3)cc2)C[C@@H]1c1ccccc1 [Example 2-137] | – | – | – | ≥ 1000 | < 1000 | < 100
19 | Nc1ccc(S(=O)(=O)NC2(C(=O)O)CC2c2ccccc2)s1 (stereo not drawn) [Example 2-165] | – | – | – | ≥ 10000 | ≥ 10000 | ≥ 1000
20 | O=C(O)C1(NS(=O)(=O)c2ccc(-c3cc(C(F)(F)F)on3)s2)CC1c1cccc(N2CCOCC2)c1 (stereo not drawn) [Example 2-257] | – | – | – | < 100 | ≥ 1000 | < 1000
21 | COCc1cccc(C2CC2(NS(=O)(=O)c2ccc(-c3ccc(Cl)cn3)s2)C(=O)O)c1 (stereo not drawn) [Example 2-57] | – | – | – | < 1000 | ≥ 10000 | < 100
22 | O=C(O)[C@]1(NS(=O)(=O)c2ccc(-c3noc4c3CCCC4)s2)C[C@@H]1c1ccccc1 [Example 2-154] | – | – | – | ≥ 1000 | ≥ 10000 | < 1000
23 | O=C(O)c1cccc([C@H]2C[C@@]2(NS(=O)(=O)c2ccc(-c3ccc(Cl)cc3)s2)C(=O)O)c1 [Example 2-175] | – | – | – | < 100 | ≥ 1000 | < 1000
24 | CN(C)C(=O)NCC1(c2ccccc2)CC1(NS(=O)(=O)c1ccc(-c2ccc(Cl)cc2)s1)C(=O)O (stereo not drawn) [Example 2-378] | < 1000 | ≥ 1000 | < 1000 | – | – | –
25 | O=C(NCC(F)(F)F)c1ccc(S(=O)(=O)NC2(C(=O)O)CC2c2ccccc2)s1 (stereo not drawn) [Example 2-106] | – | – | – | ≥ 10000 | ≥ 10000 | ≥ 10000
26 | O=C(O)C1(NS(=O)(=O)N2CC(Oc3ccc(Cl)cc3)C2)CC1c1ccccc1 (stereo not drawn) [Example 2-15] | – | – | – | ≥ 10000 | ≥ 10000 | ≥ 1000
27 | Nc1cccc(C2CC2(NS(=O)(=O)c2ccc(-c3cc(C(F)(F)F)on3)s2)C(=O)O)c1 (stereo not drawn) [Example 2-201] | – | – | – | < 1000 | ≥ 10000 | < 100
28 | CN(Cc1cccnc1)c1cccc(C2CC2(NS(=O)(=O)c2ccc(-c3cc(C(F)(F)F)on3)s2)C(=O)O)c1 (stereo not drawn) [Example 2-214] | – | – | – | < 100 | < 1000 | < 100
29 | O=C(O)C1(NS(=O)(=O)c2ccc(-c3cc(C(F)(F)F)on3)s2)CC1c1cccc(NCc2cccnc2)c1 (stereo not drawn) [Example 2-213] | – | – | – | < 100 | < 1000 | < 100
30 | CC1(C)COC(c2ccccc2C2CC2(NS(=O)(=O)c2ccc(-c3ccc(Cl)cc3)s2)C(=O)O)=N1 (stereo not drawn) [Example 2-77] | – | – | – | < 100 | ≥ 1000 | < 1000
31 | O=C(O)C1(NS(=O)(=O)c2ccc(-c3ccc(Cl)cc3)s2)CC1(CSCCO)c1ccccc1 (stereo not drawn) [Example 2-345] | < 100 | ≥ 10000 | < 1000 | – | – | –
32 | O=C(O)C1(NS(=O)(=O)N2CCN(c3ncc(Br)cn3)CC2)CC1c1ccccc1 (stereo not drawn) [Example 2-155] | – | – | – | ≥ 1000 | ≥ 10000 | < 1000
33 | O=C1OCCN1CC1(c2ccccc2)CC1(NS(=O)(=O)c1ccc(-c2ccc(Cl)cc2)s1)C(=O)O (stereo not drawn) [Example 2-362] | < 1000 | ≥ 10000 | < 100 | – | – | –
34 | CC1[C@H](c2ccccc2)[C@]1(NS(=O)(=O)N1CCN(C(=O)Nc2ccccc2)CC1)C(=O)O (stereo partly drawn) [Example 2-11, (1S,2R,3R)-2-methyl-3-phenyl-1-(4-phenylcarbamoyl-piperazine-1-sulfamoylamino)-cyclopropanecarboxylic acid] | – | – | – | ≥ 1000 | ≥ 1000 | ≥ 1000
35 | CC(C)(C)NCCOc1ccccc1C1CC1(NS(=O)(=O)c1ccc(-c2ccc(Cl)cc2)s1)C(=O)O (stereo not drawn) [Example 2-53] | – | – | – | ≥ 1000 | ≥ 10000 | ≥ 1000
36 | O=C(NCCO)OCC1(c2ccccc2)CC1(NS(=O)(=O)c1ccc(-c2cc(C(F)(F)F)on2)s1)C(=O)O (stereo not drawn) [Example 2-333] | < 1000 | ≥ 1000 | < 1000 | – | – | –
37 | O=C(O)[C@]1(NS(=O)(=O)c2ccc3c(c2)Cc2cc(Cl)ccc2-3)C[C@@H]1c1ccccc1 [Example 2-142] | – | – | – | < 100 | ≥ 1000 | < 1000
38 | CCOC(=O)NCC1(c2ccccc2)CC1(NS(=O)(=O)c1ccc(-c2ccc(Cl)cc2)s1)C(=O)O (stereo not drawn) [Example 2-384] | < 1000 | ≥ 10000 | < 100 | – | – | –
39 | O=C(O)C1(NS(=O)(=O)c2ccc(-c3ccc(Cl)cc3)s2)CC1c1cccc(NS(=O)(=O)c2cccnc2)c1 (stereo not drawn) [Example 1-136] | – | – | – | < 100 | ≥ 1000 | < 100
